Assays:
[1] = molecular target: T1, PRMT5 (Homo sapiens, UniProt O14744); assay: PRMT5 biochemical IC50 assay with SAM as cofactor; conditions: PRMT5, SAM as cofactor; read-out: SAM IC50
T1 construct: purchased Viva (custom protein)

[2] = molecular target: T1, PRMT5; assay: PRMT5 biochemical IC50 assay with no cofactor; conditions: PRMT5, no cofactor
From the text: Table 1 indicates IC50 values (μM) against PRMT5 for exemplary compounds in the presence of SAM as cofactor, with no cofactor, and with MTA as cofactor, respectively (columns 4-6). […] Ki values can be calculated from the IC50 values as described in the Examples section. As detailed in the Examples section, for the assay performed in the presence of SAM, IC50=Ki×1.5 (Ki=IC50/1.5).

[3] = molecular target: T1, PRMT5; assay: PRMT5 biochemical IC50 assay with MTA as cofactor; conditions: PRMT5, MTA as cofactor; read-out: MTA IC50
[4] = tested on: HAP1 MTAP-intact cell line; assay: SDMA in-cell western assay, HAP1 MTAP-intact; assay type: cell-based; conditions: Homo sapiens, HAP1, SDMA in-cell western, HAP1 MTAP-intact; read-out: MTAP HAP1 intact IC50
How it was run: (§1)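 Isogenic HAP1 pair: the MTAP-intact line expresses endogenous MTAP, and the deleted line is MTAP-null. Symmetric dimethylarginine was detected by in-cell western and IC50 values derived for each line.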

[5] = tested on: HAP1 MTAP-deleted cell line; assay: SDMA in-cell western assay, HAP1 MTAP-deleted; assay type: cell-based; conditions: for IC50: Homo sapiens, HAP1, SDMA in-cell western, HAP1 MTAP-deleted; for MTAP intact/deleted ratio: SDMA in-cell western
How it was run: as §1

[6] = tested on: HAP1 MTAP-deleted cell line; assay: Viability assay, MTAP-deleted cell line; assay type: cell-based; conditions: Homo sapiens, read-out: HAP1 MTAP deleted viability
From the text: Table 1 additionally indicates IC50 values in a viability assay for the MTAP-deleted cell line (column 10), indicating the effect of treatment with compound on cell survival.

[7] = read-out: HAP1 MTAP deleted IC50
[8] = IC50 ratio HAP1 MTAP-intact vs HAP1 MTAP-deleted
[9] = HAP1, viability assay, MTAP-deleted cell line
[10] = read-out: HAP 1 MTAP deleted IC50
[11] = IC50 ratio HAP1 MTAP-intact / HAP1 MTAP-deleted
[12] = HAP1, viability IC50, MTAP-deleted cell line
[13] = read-out: No Cofactor/ rel IC50
[14] = HAP1, viability assay, HAP1 MTAP-deleted

T1 sequence (O14744 whole entry): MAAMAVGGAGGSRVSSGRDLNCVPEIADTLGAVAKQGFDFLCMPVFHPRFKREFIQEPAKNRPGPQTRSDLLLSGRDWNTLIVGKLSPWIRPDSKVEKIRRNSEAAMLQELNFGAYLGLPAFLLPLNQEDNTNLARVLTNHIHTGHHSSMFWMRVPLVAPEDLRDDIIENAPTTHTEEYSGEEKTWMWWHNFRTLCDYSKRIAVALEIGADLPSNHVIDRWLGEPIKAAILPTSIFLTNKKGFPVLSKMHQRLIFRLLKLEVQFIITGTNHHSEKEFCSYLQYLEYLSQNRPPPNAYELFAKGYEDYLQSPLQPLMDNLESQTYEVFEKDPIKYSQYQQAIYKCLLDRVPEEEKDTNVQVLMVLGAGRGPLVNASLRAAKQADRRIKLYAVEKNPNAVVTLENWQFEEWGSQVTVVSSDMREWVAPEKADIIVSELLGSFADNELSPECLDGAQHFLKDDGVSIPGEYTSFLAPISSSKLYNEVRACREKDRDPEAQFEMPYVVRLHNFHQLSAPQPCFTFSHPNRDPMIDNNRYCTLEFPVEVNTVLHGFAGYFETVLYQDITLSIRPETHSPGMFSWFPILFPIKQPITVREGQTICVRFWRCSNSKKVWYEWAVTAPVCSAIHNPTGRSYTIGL
T1 sequence (Q9BQA1 whole entry partner): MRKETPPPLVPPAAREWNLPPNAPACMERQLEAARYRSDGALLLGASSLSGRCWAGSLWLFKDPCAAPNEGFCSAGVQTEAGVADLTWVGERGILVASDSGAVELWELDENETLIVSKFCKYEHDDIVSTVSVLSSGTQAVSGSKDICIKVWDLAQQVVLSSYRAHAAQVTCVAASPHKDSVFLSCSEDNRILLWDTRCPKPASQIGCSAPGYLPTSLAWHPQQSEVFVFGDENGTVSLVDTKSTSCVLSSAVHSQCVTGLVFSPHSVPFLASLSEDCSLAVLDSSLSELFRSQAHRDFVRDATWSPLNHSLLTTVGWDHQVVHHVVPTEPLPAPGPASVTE

Structure (SMILES) | IC50 [1] | IC50 ([2]; read-out: No Cofactor/rel IC50) | IC50 [3] | IC50 [4] | IC50 [5, 7] | IC50 [5, 10] | IC50 [2, 13] | MTAP intact/deleted ratio [5, 8] | IC50 [6, 9] | MTAP intact/deleted ratio [5, 11] | IC50 [6, 12] | IC50 ([6]; HAP1, viability, HAP1 MTAP-deleted cell line) | IC50 [6, 14]
NC(=O)c1cncc(NC(=O)C(=O)N2C[C@@H](CC(F)(F)F)CC[C@H]2c2ccccc2)c1 (racemic) [Compound 318, 5-[[2-Oxo-2-[(2R,5S)-2-phenyl-5-(2,2,2-trifluoroethyl)-1-piperidyl]acetyl]amino]pyridine-3-carboxamide] | > 500 nM | > 500 nM | 50 to 500 nM | > 1000 nM | > 1000 nM |  |  |  | > 10000 nM | C (an IC50 ratio of less than 3 fold) |  |  | 
CC(=O)N[C@H]1C[C@H]([C@@H]2CC[C@H](C)CN2C(=O)C(=O)Nc2cnc(N)c(C)c2)C1 (single isomer, unassigned) [Compound 562] | > 500 nM | > 500 nM | > 500 nM | > 1000 nM |  | > 1000 nM |  |  |  | C (an IC50 ratio of less than 3 fold) | > 10000 nM |  | 
Cc1ccc([C@@H]2CC[C@@H](C)CN2C(=O)C(=O)Nc2cncc(C(N)=O)c2)cc1Cl (single isomer, unassigned) [Compound 485] | > 500 nM | > 500 nM | > 500 nM | > 1000 nM | > 1000 nM |  |  |  | > 10000 nM | C (an IC50 ratio of less than 3 fold) |  |  | 
CNC(=O)N1CCC([C@@H]2CC[C@@H](C)CN2C(=O)C(=O)Nc2cnc(N)c(C)c2)CC1 (racemic) [Compound 781, 4-[(2R,5S)-1-[2-[(6-amino-5-methyl-3-pyridyl)amino]-2-oxo-acetyl]-5-methyl-2-piperidyl]-N-methyl-piperidine-1-carboxamide] | 50 to 500 nM | 50 to 500 nM | 50 to 500 nM | > 1000 nM | < 100 nM |  |  |  |  | A (an IC50 ratio greater than or equal to 10 fold) |  |  | 1000 to 10000 nM
Cc1ncc(NC(=O)C(=O)N2C[C@H](C)CC[C@H]2c2ccc3c(c2)CCC(=O)N3)cc1C(F)F (racemic) [Compound 803, rac-N-[5-(Difluoromethyl)-6-methyl-3-pyridyl]-2-[(2S,5R)-5-methyl-2-(2-oxo-3,4-dihydro-1H-quinolin-6-yl)-1-piperidyl]-2-oxo-acetamide] | 50 to 500 nM | 50 to 500 nM | < 50 nM | > 1000 nM | < 100 nM |  |  |  |  | A (an IC50 ratio greater than or equal to 10 fold) |  |  | < 1000 nM
CCc1cc(NC(=O)C(=O)N2C[C@@H](C)CC[C@@H]2c2ccc3sc(NC)nc3c2)cnc1N (single isomer, unassigned) [Compound 884] | 50 to 500 nM | < 50 nM | < 50 nM | 100 to 1000 nM |  | < 100 nM |  |  | < 1000 nM | A (an IC50 ratio greater than or equal to 10 fold) |  |  | 
Cc1cc(NC(=O)C(=O)N2C[C@@H](C)CC[C@@H]2c2cccc(C(F)(F)F)c2)cnc1N (single isomer, unassigned) [Compound 507] | > 500 nM | > 500 nM | > 500 nM | > 1000 nM | > 1000 nM |  |  |  | > 10000 nM | C (an IC50 ratio of less than 3 fold) |  |  | 
C[C@@H]1CC[C@@H](C2CCC2)N(C(=O)C(=O)Nc2cncc(C(N)=O)c2)C1 (racemic) [Compound 155, 5-[[2-[(2R,5S)-2-cyclobutyl-5-methyl-1-piperidyl]-2-oxo-acetyl]amino]pyridine-3-carboxamide] | 50 to 500 nM |  | < 50 nM | > 1000 nM |  | 100 to 1000 nM | 50 to 500 nM |  | > 10000 nM | A (an IC50 ratio greater than or equal to 10 fold) |  |  | 
CCc1cc(NC(=O)C(=O)N2C[C@@H](C)CC[C@@H]2c2ccc3sc([C@@H]4CN(C)CCO4)nc3c2)cnc1N [Compound 1134, N-(6-amino-5-ethyl-3-pyridyl)-2-oxo-2-[(2R,5S)-5-methyl-2-[2-[(2S)-4-methylmorpholin-2-yl]-1,3-benzothiazol-5-yl]-1-piperidyl]acetamide] | 50 to 500 nM | < 50 nM | < 50 nM | < 100 nM | < 100 nM |  |  | A (an IC50 ratio greater than or equal to 10 fold) | < 1000 nM |  |  |  | 

Continued, in another order:

IC50 [1] | IC50 ([2]; read-out: No Cofactor/rel IC50) | IC50 [3] | IC50 [4] | IC50 [5, 7] | IC50 [5, 10] | IC50 [2, 13] | Structure (SMILES) | MTAP intact/deleted ratio [5, 8] | IC50 [6, 9] | MTAP intact/deleted ratio [5, 11] | IC50 [6, 12] | IC50 ([6]; HAP1, viability, HAP1 MTAP-deleted cell line) | IC50 [6, 14]
50 to 500 nM | < 50 nM | < 50 nM | 100 to 1000 nM | < 100 nM |  |  | COc1ncc(NC(=O)C(=O)N2C[C@@H](C)CC[C@@H]2c2ccc3sc(CN(C)C)nc3c2)cc1C(N)=O [Compound 1162, 5-(2-((2R,5S)-2-(2-((dimethylamino)methyl)benzo[d]thiazol-5-yl)-5-methylpiperidin-1-yl)-2-oxoacetamido)-2-methoxynicotinamide] | A (an IC50 ratio greater than or equal to 10 fold) | < 1000 nM |  |  |  | 
50 to 500 nM | 50 to 500 nM | < 50 nM | < 100 nM |  | < 100 nM |  | Cc1cc(NC(=O)C(=O)N2C[C@H](C)CC[C@H]2c2ccc(C(F)(F)F)cc2)cnc1N (single isomer, unassigned) [Compound 548] |  |  | C (an IC50 ratio of less than 3 fold) | < 1000 nM |  | 
50 to 500 nM |  | < 50 nM | 100 to 1000 nM |  | < 100 nM | 50 to 500 nM | COc1ncc(NC(=O)C(=O)N2C[C@@H](C)CC[C@@H]2c2ccc3sc(CCN(C)C)nc3c2)cc1C(N)=O (racemic) [Compound 1281, 5-[[2-[(2R,5S)-2-[2-[2-(dimethylamino)ethyl]-1,3-benzothiazol-5-yl]-5-methyl-1-piperidyl]-2-oxo-acetyl]amino]-2-methoxy-pyridine-3-carboxamide] |  |  | A (an IC50 ratio greater than or equal to 10 fold) |  | < 1000 nM | 
50 to 500 nM | < 50 nM | < 50 nM | 100 to 1000 nM | < 100 nM |  |  | CCc1cc(NC(=O)C(=O)N2C[C@@H](C)CC[C@@H]2c2ccc(N3CCN(C)C[C@@H]3C)nc2)cnc1N (racemic) [Compound 1099, N-(6-amino-5-ethyl-3-pyridyl)-2-[(2R,5S)-2-[6-[(2S)-2,4-dimethylpiperazin-1-yl]-3-pyridyl]-5-methyl-1-piperidyl]-2-oxo-acetamide] | A (an IC50 ratio greater than or equal to 10 fold) | < 1000 nM |  |  |  | 
50 to 500 nM | < 50 nM | < 50 nM | 100 to 1000 nM |  | < 100 nM |  | CCc1cc(NC(=O)C(=O)N2C[C@@H](C)CC[C@@H]2c2ccc(NC(C)=O)nc2)cnc1N (single isomer, unassigned) [Compound 925] |  | < 1000 nM | A (an IC50 ratio greater than or equal to 10 fold) |  |  | 
50 to 500 nM | < 50 nM | < 50 nM | < 100 nM | < 100 nM |  |  | CO[C@H]1C[C@H](c2ccc3scnc3c2)N(C(=O)C(=O)Nc2cnc(N)c(C)c2)C[C@H]1C (relative stereo) [Compound 1216] | B (an IC50 ratio greater than or equal to 3 fold but lower than 10 fold) | < 1000 nM |  |  |  | 
50 to 500 nM | 50 to 500 nM | 50 to 500 nM | > 1000 nM |  | > 1000 nM |  | Cc1ncc(NC(=O)C(=O)N2C[C@H](C)CC[C@H]2c2ccc(F)cc2)cc1Cl (racemic) [Compound 622, N-(5-chloro-6-methyl-3-pyridyl)-2-[(2S,5R)-2-(4-fluorophenyl)-5-methyl-1-piperidyl]-2-oxo-acetamide] |  |  | B (an IC50 ratio greater than or equal to 3 fold but lower than 10 fold) | > 10000 nM |  | 
50 to 500 nM | 50 to 500 nM | 50 to 500 nM | 100 to 1000 nM | < 100 nM |  |  | Cc1cc(NC(=O)C(=O)N2C[C@H](C)CC[C@H]2c2ccc(-c3ccn[nH]3)cc2)cnc1N (racemic) [Compound 526, rac N-(6-amino-5-methyl-3-pyridyl)-2-[(2S,5R)-5-methyl-2-[4-(1H-pyrazol-5-yl)phenyl]-1-piperidyl]-2-oxo-acetamide] |  | < 1000 nM | A (an IC50 ratio greater than or equal to 10 fold) |  |  | 
50 to 500 nM | 50 to 500 nM | < 50 nM | > 1000 nM | 100 to 1000 nM |  |  | Cc1cc(NC(=O)C(=O)N2C[C@H](C)[C@@H](CC(C)C)C[C@H]2c2ccc3scnc3c2)cnc1N (single isomer, unassigned) [Compound 1210] |  | 1000 to 10000 nM |  |  |  | 
